From PubChem BioAssay AID248 (DTP/NCI, 2004)
Where “and” joins values, the source holds several entries; their conditions need not be identical. Identical values can stand only once. Inconclusive results and toxic doses are left out. Cut-off read from the data, not from the text of the source: active = T/C of 150% or more; inactive = T/C below 125%.

System: L1210 leukemia ip in BDF1 mice, survival T/C
Assay: NCI In Vivo Anticancer Drug Screen. Data for tumor model L1210 Leukemia (intraperitoneal) in B6D2F1 (BDF1) mice
Settings: endpoint: mean survival time, higher = longer survival
Procedure, shortened: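 Ratio derived from survival: compound-dosed mice over vehicle-dosed mice, all bearing a transplantable tumor.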

[1] = dose: 12.5 mg/kg/injection, schedule: Q01DX Z (ip), vehicle: carboxymethylcellulose (CMC)
[2] = dose: 100.0 mg/kg/injection, schedule: Q01DX009 (ip), vehicle: saline with Tween-80
[3] = dose: 200.0 mg/kg/injection, schedule: Q01DX009 (ip), vehicle: saline with Tween-80
[4] = dose: 400.0 mg/kg/injection, schedule: Q01DX009 (ip), vehicle: saline with Tween-80
[5] = dose: 100.0 mg/kg/injection, schedule: Q04DX003 (ip), vehicle: saline
[6] = dose: 50.0 mg/kg/injection, schedule: Q04DX002 (ip), vehicle: saline
[7] = dose: 100.0 mg/kg/injection, schedule: Q04DX002 (ip), vehicle: saline
[8] = dose: 200.0 mg/kg/injection, schedule: Q04DX002 (ip), vehicle: saline
[9] = dose: 50.0 mg/kg/injection, schedule: Q04DX003 (ip), vehicle: saline with Tween-80
[10] = dose: 100.0 mg/kg/injection, schedule: Q04DX003 (ip), vehicle: saline with Tween-80
[11] = dose: 100.0 mg/kg/injection, schedule: Q04DX003 (ip), vehicle: Klucel (hydroxypropylcellulose) (HPC)
[12] = dose: 400.0 mg/kg/injection, schedule: Q04DX003 (ip), vehicle: Klucel (hydroxypropylcellulose) (HPC)

Measured: T/C

CN(N=O)C(=O)Nc1ccccc1
inactive: dose: 6.25 mg/kg/injection, schedule: Q01DX Z (ip), vehicle: carboxymethylcellulose (CMC) 104 % of control | [1] 112 % of control | dose: 25.0 mg/kg/injection, schedule: Q01DX Z (ip), vehicle: carboxymethylcellulose (CMC) 112 % of control | dose: 50.0 mg/kg/injection, schedule: Q01DX Z (ip), vehicle: carboxymethylcellulose (CMC) 122 % of control | dose: 100.0 mg/kg/injection, schedule: Q01DX Z (ip), vehicle: carboxymethylcellulose (CMC) 91 % of control | dose: 150.0 mg/kg/injection, schedule: Q01DX001 (ip), vehicle: carboxymethylcellulose (CMC) 112 % of control | dose: 600.0 mg/kg/injection, schedule: Q01DX001 (ip), vehicle: carboxymethylcellulose (CMC) 117 % of control

COP(=O)(OC)C1CC2CCC1C2 (configuration not stated)
inactive: dose: 100.0 mg/kg/injection, schedule: Q04DX003 (ip), vehicle: acetone 102 % of control | dose: 200.0 mg/kg/injection, schedule: Q04DX003 (ip), vehicle: acetone 102 % of control | dose: 400.0 mg/kg/injection, schedule: Q04DX003 (ip), vehicle: acetone 100 % of control

CCCCCCCCCCCC(=O)O
inactive: [2] 92 % of control | [3] 106 % of control | [4] 96 % of control

CC1CC(C)(C)CC2(C1)OCC(CCl)O2 (configuration not stated)
inactive: dose: 100.0 mg/kg/injection, schedule: Q04DX003 (ip), vehicle: saline sonified 100 % of control | dose: 200.0 mg/kg/injection, schedule: Q04DX003 (ip), vehicle: saline sonified 98 % of control | dose: 400.0 mg/kg/injection, schedule: Q04DX003 (ip), vehicle: saline sonified 96 % of control

c1cc(CCc2ccncc2)ccn1
inactive: dose: 25.0 mg/kg/injection, schedule: Q04DX003 (ip), vehicle: saline 99 % of control | dose: 50.0 mg/kg/injection, schedule: Q04DX003 (ip), vehicle: saline 99 % of control | [5] 109 % of control and 89 % of control

NC(=O)c1cn[nH]c1NC(=O)/C=C/c1cccc([N+](=O)[O-])c1
inactive: dose: 50.0 mg/kg/injection, schedule: Q01DX001 (ip), vehicle: Klucel (hydroxypropylcellulose) (HPC) 92 % of control | dose: 100.0 mg/kg/injection, schedule: Q01DX001 (ip), vehicle: Klucel (hydroxypropylcellulose) (HPC) 96 % of control | dose: 200.0 mg/kg/injection, schedule: Q01DX001 (ip), vehicle: Klucel (hydroxypropylcellulose) (HPC) 91 % of control

CC(C)=NOC(N)=O
inactive: dose: 50.0 mg/kg/injection, schedule: Q01DX Z (ip), vehicle: water 108 % of control | dose: 100.0 mg/kg/injection, schedule: Q01DX Z (ip), vehicle: water 100 % of control | dose: 200.0 mg/kg/injection, schedule: Q01DX Z (ip), vehicle: water 100 % of control | dose: 400.0 mg/kg/injection, schedule: Q01DX Z (ip), vehicle: water 100 % of control

CCOC(=O)C(C(=O)OCC)c1cccc(Cl)c1
inactive: dose: 50.0 mg/kg/injection, schedule: Q01DX001 (ip), vehicle: saline 106 % of control | dose: 100.0 mg/kg/injection, schedule: Q01DX001 (ip), vehicle: saline 109 % of control | dose: 200.0 mg/kg/injection, schedule: Q01DX001 (ip), vehicle: saline 103 % of control | dose: 400.0 mg/kg/injection, schedule: Q01DX001 (ip), vehicle: saline 103 % of control

Cc1cc[n+]([O-])nc1N(C)N
inactive: [6] 101 % of control | [7] 104 % of control | [8] 96 % of control

O=C(O)C(Nc1ccc(Nc2ccccc2)cc1)c1ccccc1 (configuration not stated)
inactive: dose: 100.0 mg/kg/injection, schedule: Q04DX002 (ip), vehicle: Klucel (hydroxypropylcellulose) (HPC) 100 % of control | dose: 200.0 mg/kg/injection, schedule: Q04DX002 (ip), vehicle: Klucel (hydroxypropylcellulose) (HPC) 103 % of control | dose: 400.0 mg/kg/injection, schedule: Q04DX002 (ip), vehicle: Klucel (hydroxypropylcellulose) (HPC) 114 % of control

O=C1OC(c2ccccc2)(C2(c3ccccc3)OC(=O)c3ccccc32)c2ccccc21 (configuration not stated)
inactive: dose: 25.0 mg/kg/injection, schedule: Q04DX003 (ip), vehicle: saline with Tween-80 97 % of control | [9] 97 % of control | [10] 90 % of control

Cc1ccc(C(=O)OCc2ccc3c(c2)OCO3)cc1
inactive: dose: 222.0 mg/kg/injection, schedule: Q01DX Z (ip), vehicle: methylcellulose (MC) 97 % of control | dose: 333.0 mg/kg/injection, schedule: Q01DX Z (ip), vehicle: methylcellulose (MC) 89 % of control | dose: 500.0 mg/kg/injection, schedule: Q01DX Z (ip), vehicle: methylcellulose (MC) 89 % of control

COc1cc(/C=C2\CCOC2=O)cc(/C=C2\CCOC2=O)c1O
inactive: dose: 100.0 mg/kg/injection, schedule: Q04DX002 (ip), vehicle: saline with Tween-80 89 % of control

c1ccc2sc(SCSc3nc4ccccc4s3)nc2c1
inactive: [9] 93 % of control | [10] 90 % of control | dose: 200.0 mg/kg/injection, schedule: Q04DX003 (ip), vehicle: saline with Tween-80 100 % of control

CC1CN=C(c2ccc(NC(=O)NCCCCCCCCCCCCNC(=O)Nc3ccc(C4=NCC(C)N4)cc3)cc2)N1 (configuration not stated)
inactive: [1] 95 % of control | dose: 125.0 mg/kg/injection, schedule: Q01DX Z (ip), vehicle: carboxymethylcellulose (CMC) 104 % of control

CCN(CC)CCCNc1cc(C)c(C)cc1[N+](=O)[O-]
inactive: [5] 100 % of control

O=C(O)CNC(=O)C(CSCc1ccccc1)NC(=O)OCc1ccccc1 (configuration not stated)
inactive: [11] 97 % of control | [12] 86 % of control

CCCCCCCCCCCCCCCC(=O)Nc1ccc(C(C)=O)cc1
inactive: [11] 91 % of control | dose: 200.0 mg/kg/injection, schedule: Q04DX003 (ip), vehicle: Klucel (hydroxypropylcellulose) (HPC) 88 % of control | [12] 95 % of control

OCCN1CCC(CCCC2CCN(CCO)CC2)CC1
inactive: dose: 10.0 mg/kg/injection, schedule: Q01DX Z (ip), vehicle: saline 94 % of control | dose: 30.0 mg/kg/injection, schedule: Q01DX Z (ip), vehicle: saline 92 % of control | dose: 100.0 mg/kg/injection, schedule: Q01DX Z (ip), vehicle: saline 94 % of control

Cc1cn(C2CC(O)C(COP(=O)(N3CC3)N3CC3)O2)c(=O)[nH]c1=O (configuration not stated)
inactive: [6] 107 % of control | [7] 100 % of control | [8] 94 % of control

ClCC[n+]1ccc(-c2cc[n+](CCCl)cc2)cc1
inactive: dose: 156.0 micrograms/kg/injection, schedule: Q01DX Z (ip), vehicle: saline 110 % of control | dose: 313.0 micrograms/kg/injection, schedule: Q01DX Z (ip), vehicle: saline 100 % of control | dose: 625.0 micrograms/kg/injection, schedule: Q01DX Z (ip), vehicle: saline 98 % of control | dose: 1250.0 micrograms/kg/injection, schedule: Q01DX Z (ip), vehicle: saline 98 % of control

Cc1cc(C(=O)NNC(C)Cc2ccccc2)no1 (configuration not stated)
inactive: dose: 4.6 mg/kg/injection, schedule: Q01DX009 (ip), vehicle: Klucel (hydroxypropylcellulose) (HPC) 94 % of control | dose: 9.3 mg/kg/injection, schedule: Q01DX009 (ip), vehicle: Klucel (hydroxypropylcellulose) (HPC) 94 % of control | dose: 18.75 mg/kg/injection, schedule: Q01DX009 (ip), vehicle: Klucel (hydroxypropylcellulose) (HPC) 97 % of control | dose: 37.5 mg/kg/injection, schedule: Q01DX009 (ip), vehicle: Klucel (hydroxypropylcellulose) (HPC) 97 % of control

CCCCC1C(=O)OC(C(C)C(O)CCCN=C(N)N)C(C)C=C(C)CCCCC(O)CC(O)CC(O)CC(O)CC(O)C(OC2OC(CO)C(O)C2O)C=C(C)C(O)CCCC(O)CCCC(O)CCC(C)C1O (configuration not stated)
inactive: dose: 0.71 mg/kg/injection, schedule: Q01DX Z (ip), vehicle: carboxymethylcellulose (CMC) 96 % of control

COC1OC2COc3ccccc3OC2C(NC(N)=O)C1O (configuration not stated)
inactive: [2] 97 % of control | [3] 100 % of control | [4] 91 % of control
